The record followed here is patent publication US9926264B2, “Phenylcarbamate derivatives as formyl peptide receptor modulators” (Allergan, Inc., priority 2013, dated 2018).

This assay has as its target T1, FPR2 (Homo sapiens, UniProt P25090).
T1 construct: expressed in transfected cells; host or cells: CHO-Gα16 cells
T1 sequence (P25090 1-351): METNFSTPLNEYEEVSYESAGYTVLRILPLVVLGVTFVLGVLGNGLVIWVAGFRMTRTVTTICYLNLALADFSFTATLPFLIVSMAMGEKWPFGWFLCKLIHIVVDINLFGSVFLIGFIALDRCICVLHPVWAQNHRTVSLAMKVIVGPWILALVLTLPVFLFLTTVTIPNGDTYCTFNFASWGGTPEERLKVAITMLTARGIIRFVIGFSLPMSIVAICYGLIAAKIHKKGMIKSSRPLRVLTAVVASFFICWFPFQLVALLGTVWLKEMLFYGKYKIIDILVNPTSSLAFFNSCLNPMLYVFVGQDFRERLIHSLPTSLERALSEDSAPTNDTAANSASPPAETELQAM
As to the kind of experiment: compound-induced calcium activity on FLIPR Tetra in CHO-Gα16 cells stably expressing FPR2. The class given is cell-based. As to conditions: for Emax: efficacy value in brackets after EC50, read-out: FPR2 Gα16-CHO (% eff); for pEC50: tested 0.61 to 10,000 nM. How it is done: CHO-Gα16 cells stably expressing FPR2 were cultured in (F12, 10% FBS, 1% PSA, 400 μg/ml geneticin and 50 μg/ml hygromycin) and HEK-Gqi5 cells stable expressing FPR1 were cultured in (DMEM high glucose, 10% FBS, 1% PSA, 400 μg/ml geneticin and 50 μg/ml hygromycin). In general, the day before the experiment, 18,000 cells/well were plated in a 384-well clear bottom poly-D-lysine coated plate. The following day the screening compound-induced calcium activity was assayed on the FLIPR^Tetra. The drug plates were prepared in 384-well microplates using the EP3 and the MultiPROBE robotic liquid handling systems. Compounds were tested at concentrations ranging from 0.61 to 10,000 nM. Results are expressed as EC50 (nM) and % efficacy values.

SMILES strings stand for the structures. pEC50: −log10 of the molar value.

One may read the pEC50 as the EC50 on a negative log10 scale, so that one unit is a factor of ten. In the case of `CCN(CC(=O)O)C(=O)[C@H](CC(C)C)OC(=O)Nc1ccc(Br)cc1` [Compound 24, {[(2S)-2-{[(4-Bromophenyl)carbamoyl]oxy}-4-methylpentanoyl](ethyl)amino}acetic acid], the Emax came out at 95% and the pEC50 is 9.62.
`CC(C)C[C@H](OC(=O)Nc1ccc(C(F)(F)F)cc1)C(=O)N(C)CC(=O)O` [Compound 25, {Methyl[(2S)-4-methyl-2-({[4-(trifluoromethyl)phenyl]carbamoyl}oxy)pentanoyl]amino}acetic acid]: the Emax is 97% and the pEC50 was 9.03.
In the same order, the values of `CCN(CC(=O)O)C(=O)[C@H](CC(C)C)OC(=O)Nc1ccc(C(F)(F)F)cc1` [Compound 26, {Ethyl[(2S)-4-methyl-2-({[4-(trifluoromethyl)phenyl]carbamoyl}oxy)pentanoyl]amino}acetic acid] are 98% and 9.54.
As for `CC(C)C[C@H](OC(=O)Nc1ccc(Br)cc1)C(=O)N(C)CCOS(=O)(=O)O` [Compound 27, (2S)-4-Methyl-1-{methyl[2-(sulfooxy)ethyl]amino}-1-oxopentan-2-yl (4-bromophenyl)carbamate], the Emax turned out to be 99% and the pEC50 was 8.06.
For `CC(C)C[C@H](OC(=O)Nc1ccc(C(F)(F)F)cc1)C(=O)NCS(=O)(=O)O` [Compound 28, ({(2S)-4-methyl-2-[({[4-(trifluoromethyl)phenyl]amino}carbonyl)oxy]pentanoyl}amino)methanesulfonic acid], the Emax was 85% and the pEC50 was 8.37.
With `CCCN(CC(=O)OC(C)(C)C)C(=O)[C@H](CC(C)C)OC(=O)Nc1ccc(C(F)(F)F)cc1` [Compound 29, tert-Butyl [{(2S)-4-methyl-2-[({[4-(trifluoromethyl)phenyl]amino}carbonyl)oxy]pentanoyl}(propyl)amino]acetate], the Emax was 101% and the pEC50 was 7.94.
As for `CC(C)C[C@H](OC(=O)Nc1ccc(C(F)(F)F)cc1)C(=O)N(CC(=O)OC(C)(C)C)C(C)C` [Compound 30, tert-Butyl (Isopropyl{(2S)-4-methyl-2-[({[4-(trifluoromethyl)phenyl]amino}carbonyl)oxy]pentanoyl}amino)acetate], the Emax was 76% and the pEC50 was 6.52.
For `CCN(Cc1nnn[nH]1)C(=O)[C@H](CC(C)C)OC(=O)Nc1ccc(Br)cc1` [Compound 31, (1S)-1-{[ethyl(1H-tetrazol-5-ylmethyl)amino]carbonyl}-3-methylbutyl (4-bromophenyl)carbamate], the Emax worked out at 95% and the pEC50 was 9.52.
With `CCN(Cc1nnn[nH]1)C(=O)[C@H](CC(C)C)OC(=O)Nc1ccc(C(F)(F)F)cc1` [Compound 32, (1S)-1-{[ethyl(1H-tetrazol-5-ylmethyl)amino]carbonyl}-3-methylbutyl [4-(trifluoromethyl)phenyl]carbamate], the Emax worked out at 100% and the pEC50 is 9.18.
In the same order, the values of `CC(C)C[C@H](OC(=O)Nc1ccc(Br)cc1)C(=O)NCCNC(=O)OC(C)(C)C` [Compound 33, (1S)-1-[({2-[(tert-butoxycarbonyl)amino]ethyl}amino)carbonyl]-3-methylbutyl (4-bromophenyl)carbamate] are 103% and 6.40.
Regarding `CC(C)(C)OC(=O)CNC(=O)[C@H](Cc1ccccc1)OC(=O)Nc1ccc(Br)cc1` [Compound 34, tert-Butyl {[(2S)-2-({[(4-bromophenyl)amino]carbonyl}oxy)-3-phenylpropanoyl]amino}acetate], the Emax was 103% and the pEC50 was 6.97.
For the compound `O=C(Nc1ccc(Br)cc1)O[C@@H](Cc1ccccc1)C(=O)NCc1nnn[nH]1` [Compound 35, (1S)-1-benzyl-2-oxo-2-[(1H-tetrazol-5-ylmethyl)amino]ethyl (4-bromophenyl)carbamate], the Emax came out at 103% and the pEC50 was 9.08.
For the compound `CN(CC(=O)OC(C)(C)C)C(=O)[C@H](Cc1ccccc1)OC(=O)Nc1ccc(Br)cc1` [Compound 36, tert-Butyl {[(2S)-2-({[(4-bromophenyl)amino]carbonyl}oxy)-3-phenylpropanoyl](methyl)amino}acetate], the Emax came out at 105% and the pEC50 is 7.93.
For the compound `CCCN(CC(=O)O)C(=O)[C@H](CC(C)C)OC(=O)Nc1ccc(C(F)(F)F)cc1` [Compound 37, [{(2S)-4-methyl-2-[({[4-(trifluoromethyl)phenyl]amino}carbonyl)oxy]pentanoyl}(propyl)amino]acetic acid], the Emax is 102% and the pEC50 was 8.92.
Take `CC(C)C[C@H](OC(=O)Nc1ccc(C(F)(F)F)cc1)C(=O)N(CC(=O)O)C(C)C` [Compound 38, (Isopropyl{(2S)-4-methyl-2-[({[4-(trifluoromethyl)phenyl]amino}carbonyl)oxy]pentanoyl}amino)acetic acid]: the Emax worked out at 107% and the pEC50 was 9.18.
`CC(C)C[C@H](OC(=O)Nc1ccc(Br)cc1)C(=O)NCCN` [Compound 39, (1S)-1-{[(2-aminoethyl)amino]carbonyl}-3-methylbutyl (4-bromophenyl) carbamate]: the Emax turned out to be 89% and the pEC50 was 7.11.
In the case of `O=C(O)CNC(=O)[C@H](Cc1ccccc1)OC(=O)Nc1ccc(Br)cc1` [Compound 40, {[(2S)-2-({[(4-bromophenyl)amino]carbonyl}oxy)-3-phenylpropanoyl]amino}acetic acid], the Emax turned out to be 95% and the pEC50 was 8.89.
In the same order, the values of `CN(CC(=O)O)C(=O)[C@H](Cc1ccccc1)OC(=O)Nc1ccc(Br)cc1` [Compound 41, {[(2S)-2-({[(4-Bromophenyl)amino]carbonyl}oxy)-3-phenylpropanoyl](methyl)amino}acetic acid] are 98% and 9.39.
Take `CC(C)C[C@H](OC(=O)Nc1ccc(Br)cc1)C(=O)NCCNS(=O)(=O)N(C)C` [Compound 42, (1S)-1-{[(2-{[(Dimethylamino)sulfonyl]amino}ethyl)amino]carbonyl}-3-methylbutyl (4-bromophenyl)carbamate]: the Emax was 99% and the pEC50 is 6.90.
For `CC(C)C[C@H](OC(=O)Nc1ccc(C(F)(F)F)cc1)C(=O)OC(C)(C)C` [Intermediate 2, tert-Butyl (2S)-4-Methyl-2-({[4-(trifluoromethyl)phenyl]carbamoyl}oxy)pentanoate], the Emax worked out at 56% and the pEC50 is 5.00.
With `CC(C)(C)OC(=O)[C@H](Cc1ccccc1)OC(=O)Nc1ccc(Br)cc1` [Intermediate 2a, tert-Butyl (2S)-2-({[(4-bromophenyl)amino]carbonyl}oxy)-3-phenyl propanoate], the Emax stood at 55% and the pEC50 is 5.66.
In the same order, the values of `CC(C)C[C@H](OC(=O)Nc1ccc(Br)cc1)C(=O)O` [Intermediate 3, (2S)-2-{[(4-Bromophenyl)carbamoyl]oxy}-4-methylpentanoic acid] are 85% and 8.07.
As for `CC(C)C[C@H](OC(=O)Nc1ccc(C(F)(F)F)cc1)C(=O)O` [Intermediate 4, (2S)-4-Methyl-2-({[4-(Trifluoromethyl)phenyl]carbamoyl}oxy)pentanoic acid], the Emax worked out at 88% and the pEC50 is 7.61.
On to `O=C(Nc1ccc(Br)cc1)O[C@@H](Cc1ccccc1)C(=O)O` [Intermediate 4a, (2S)-2-({[(4-bromophenyl)amino]carbonyl}oxy)-3-phenylpropanoic acid], for which the Emax was 103% and the pEC50 was 8.84.
